Laboratory results: patent US20180289678A1, “PHARMACEUTICAL COMPOSITION, PHARMACEUTICAL DOSAGE FORM, PROCESS FOR THEIR PREPARATION, METHODS FOR TREATING AND USES THEREOF” (Boehringer Ingelheim International GmbH, priority 2009, published 2018)
Where two headings read alike, the source gives them in different places.

Experiment: Study .5: single dose study in healthy Japanese volunteers, pharmacokinetic parameters
Type: in vivo, human
Conditions: Study .5, fasted
Experimental: 5. Pharmacokinetic Parameters
The pharmacokinetic parameters of pharmaceutical compositions and pharmaceutical dosage forms are assessed in healthy volunteer and patient populations. In the studies shown below, the participants fasted on the day of sampling, unless as otherwise stated (see for example study .3). The active substance in the studies below is the compound (I.9), preferably in the crystalline form (I.9X), and the dose of active ingredient is indicated in mg.
For the quantification of plasma concentrations of the active ingredient, 2.7 mL of blood was collected and transferred into an EDTA (ethylendiaminetetraacetic acid)-anticoagulant blood drawing tube. The EDTA-anticoagulated blood samples were centrifuged immediately after collection. Centrifugation lasted for about 10 minutes (at about 2,000×gf to 4,000×gf) at 4-8° C. or within 30 minutes while stored on ice. Concentrations of active substance in EDTA human plasma samples were quantitated using a HPLC/MS/MS method. The assay method comprised a solid phase supported liquid-liquid extraction of human plasma coupled with HPLC/MS/MS determination of the extracted samples. The HPLC/MS/MS assay was validated for the range of 1.11 to 1110 nM in human plasma.
Study .5: Single dose study in a healthy volunteer population of N=48 (Japanese volunteers). Healthy volunteers were administered tablets as described in Example 11 (section Examples of formulations).
AUC0-inf:area under the concentration-time curve of the analyte in plasma over the time interval from 0 extrapolated to infinity.
Cmax: maximum concentration of the analyte in plasma.
Tmax: time from dosing to maximum concentration.

AUC0-inf Max (5 mg single dose): 1.31 µM·h | AUC0-inf Min (5 mg single dose): 1 µM·h | AUC0-inf,norm Max (5 mg single dose): 262 nmol·h/L/mg | AUC0-inf,norm Median (5 mg single dose): 230 nmol·h/L/mg | AUC0-inf,norm Min (5 mg single dose): 200 nmol·h/L/mg | AUC0-inf,norm gMean (5 mg single dose): 228 nmol·h/L/mg | Cmax,norm Max (5 mg single dose): 46 nmol/L/mg | Cmax,norm Median (5 mg single dose): 31 nmol/L/mg | Cmax,norm Min (5 mg single dose): 25 nmol/L/mg | Cmax,norm gMean (5 mg single dose): 32 nmol/L/mg | tmax Min (5 mg single dose): 0.750 h | Cmax (5 mg single dose, read-out: Cmax Max): 230 nM | Cmax (5 mg single dose, read-out: Cmax Min): 123 nM | AUC0-inf Max (10 mg single dose): 3.19 µM·h | AUC0-inf Min (10 mg single dose): 2.34 µM·h | AUC0-inf,norm Max (10 mg single dose): 319 nmol·h/L/mg | AUC0-inf,norm Median (10 mg single dose): 264 nmol·h/L/mg | AUC0-inf,norm Min (10 mg single dose): 234 nmol·h/L/mg | AUC0-inf,norm gMean (10 mg single dose): 266 nmol·h/L/mg | Cmax,norm Max (10 mg single dose): 45 nmol/L/mg | Cmax,norm Median (10 mg single dose): 40 nmol/L/mg | Cmax,norm Min (10 mg single dose): 24 nmol/L/mg | Cmax,norm gMean (10 mg single dose): 37 nmol/L/mg | tmax Max (10 mg single dose): 3.00 h | tmax Min (10 mg single dose): 1.00 h | Cmax (10 mg single dose, read-out: Cmax Max): 454 nM | Cmax (10 mg single dose, read-out: Cmax Min): 242 nM | AUC0-inf Max (25 mg single dose): 7.15 µM·h | AUC0-inf Min (25 mg single dose): 5.04 µM·h | AUC0-inf,norm Max (25 mg single dose): 286 nmol·h/L/mg | AUC0-inf,norm Median (25 mg single dose): 254 nmol·h/L/mg | AUC0-inf,norm Min (25 mg single dose): 202 nmol·h/L/mg | AUC0-inf,norm gMean (25 mg single dose): 245 nmol·h/L/mg | Cmax,norm Max (25 mg single dose): 32 nmol/L/mg | Cmax,norm Median (25 mg single dose): 26 nmol/L/mg | Cmax,norm Min (25 mg single dose): 24 nmol/L/mg | Cmax,norm gMean (25 mg single dose): 26 nmol/L/mg | tmax Max (25 mg single dose): 4.00 h | tmax Min (25 mg single dose): 1.00 h | Cmax (25 mg single dose, read-out: Cmax Max): 790 nM | Cmax (25 mg single dose, read-out: Cmax Min): 605 nM | AUC(0-inf) (human, plasma, oral, 5 mg, 5 mg single dose, read-out: AUC0-inf Mean): 1.14 µM·h | AUC(0-inf) (human, plasma, oral, 5 mg, 5 mg single dose, read-out: AUC0-inf Median): 1.15 µM·h | AUC(0-inf) (human, plasma, oral, 5 mg, 5 mg single dose, read-out: AUC0-inf gMean): 1.14 µM·h | Cmax (human, plasma, oral, 5 mg, 5 mg single dose, read-out: Cmax Mean): 166 nM | Cmax (human, plasma, oral, 5 mg, 5 mg single dose, read-out: Cmax Median): 153 nM | Cmax (human, plasma, oral, 5 mg, 5 mg single dose, read-out: Cmax gMean): 161 nM | Tmax (human, plasma, oral, 5 mg, 5 mg single dose, read-out: tmax Mean): 1.63 h | Tmax (human, plasma, oral, 5 mg, 5 mg single dose, read-out: tmax Median): 2 h | Tmax (human, plasma, oral, 5 mg, 5 mg single dose, read-out: tmax gMean): 1.51 h | AUC(0-inf) (human, plasma, oral, 10 mg, 10 mg single dose, read-out: AUC0-inf Mean): 2.67 µM·h | AUC(0-inf) (human, plasma, oral, 10 mg, 10 mg single dose, read-out: AUC0-inf Median): 2.64 µM·h | AUC(0-inf) (human, plasma, oral, 10 mg, 10 mg single dose, read-out: AUC0-inf gMean): 2.66 µM·h | Cmax (human, plasma, oral, 10 mg, 10 mg single dose, read-out: Cmax Mean): 379 nM | Cmax (human, plasma, oral, 10 mg, 10 mg single dose, read-out: Cmax Median): 398 nM | Cmax (human, plasma, oral, 10 mg, 10 mg single dose, read-out: Cmax gMean): 372 nM | Tmax (human, plasma, oral, 10 mg, 10 mg single dose, read-out: tmax Mean): 1.67 h | Tmax (human, plasma, oral, 10 mg, 10 mg single dose, read-out: tmax Median): 1.5 h | Tmax (human, plasma, oral, 10 mg, 10 mg single dose, read-out: tmax gMean): 1.54 h | AUC(0-inf) (human, plasma, oral, 25 mg, 25 mg single dose, read-out: AUC0-inf Mean): 6.18 µM·h | AUC(0-inf) (human, plasma, oral, 25 mg, 25 mg single dose, read-out: AUC0-inf Median): 6.34 µM·h | AUC(0-inf) (human, plasma, oral, 25 mg, 25 mg single dose, read-out: AUC0-inf gMean): 6.13 µM·h | Cmax (human, plasma, oral, 25 mg, 25 mg single dose, read-out: Cmax Mean): 661 nM | Cmax (human, plasma, oral, 25 mg, 25 mg single dose, read-out: Cmax Median): 643 nM | Cmax (human, plasma, oral, 25 mg, 25 mg single dose, read-out: Cmax gMean): 658 nM | Tmax (human, plasma, oral, 25 mg, 25 mg single dose, read-out: tmax Mean): 2.33 h | Tmax (human, plasma, oral, 25 mg, 25 mg single dose, read-out: tmax Median): 2 h | Tmax (human, plasma, oral, 25 mg, 25 mg single dose, read-out: tmax gMean): 2.14 h
SMILES: OC[C@H]1O[C@@H](c2ccc(Cl)c(Cc3ccc(O[C@H]4CCOC4)cc3)c2)[C@H](O)[C@@H](O)[C@@H]1O [Compound (I.9), 1-chloro-4-(β-D-glucopyranos-1-yl)-2-[4-((S)-tetrahydrofuran-3-yloxy)-benzyl]-benzene]
